The values below are quoted from earlier work in US12612577B2, “Perfumed compositions, process of preparing thereof and uses” (MINASOLVE SAS, priority 2019, dated 2026).

The test system of this data set is bacteria and fungi. The settings on record: against bacteria and fungi.

For `CCCC(O)CO` (stereo not shown) [1,2-pentanediol], the “minimum inhibitory concentration (MIC)” value is given as 5%.
